Tests used:
[1] = tested on: MDA-MB-231/ATCC; test: cells; settings: Homo sapiens, MDA-MB-231, 48 h; for CC50: read-out: LC50
[2] = tested on: HS 578T; test: cells; settings: Homo sapiens, 48 h; for CC50: read-out: LC50
[3] = tested on: KM12; test: cells; settings: Homo sapiens, KM12, 48 h
[4] = tested on: SNB-19; test: cells; settings: Homo sapiens, SNB-19, 48 h; for CC50: read-out: LC50
[5] = tested on: ACHN; test: cells; settings: Homo sapiens, 48 h
[6] = Hemolytic activity, spectrophotometric; type: cell-based, human; settings: human, human red blood cells (huRBC), 5% hematocrit, 200 μg/mL, 37 °C
[7] = tested on: PC-3; test: cells; settings: Homo sapiens, PC-3, 48 h; for CC50: read-out: LC50
[8] = tested on: BT-549; test: cells; settings: Homo sapiens, BT-549, 48 h
[9] = tested on: T-47D; test: cells; settings: Homo sapiens, T47D, 48 h; for CC50: read-out: LC50
[10] = tested on: 60 cancer cell lines; test: NCI-60 one-dose screen (10 μM); type: cell-based; settings: Homo sapiens; one dose of 10 μM, mean over 60 cancer cell lines; read-out: Mean Growth Percent (MGP)
Description: Additionally, the mean of the growth percentages (MGP) of each compound against all the 60 cancer cell lines is also reported, which is used as one of the selection criteria to continue with tests at five concentration doses.

[11] = tested on: HOP-62; test: cells; settings: Homo sapiens, HOP-62, 48 h; for CC50: read-out: LC50
[12] = tested on: MOLT-4; test: cells; settings: Homo sapiens, MOLT-4, 48 h; for CC50: read-out: LC50
[13] = tested on: SK-OV-3; test: cells; settings: Homo sapiens, SK-OV-3, 48 h; for CC50: read-out: LC50
[14] = tested on: SK-MEL-28; test: cells; settings: Homo sapiens, SK-MEL-28, 48 h; for CC50: read-out: LC50
[15] = tested on: HCT-116; test: cells; settings: Homo sapiens, HCT-116, 48 h
[16] = tested on: UACC-62; test: cells; settings: Homo sapiens, UACC-62, 48 h
[17] = tested on: SF-539; test: cells; settings: Homo sapiens, SF-539, 48 h
[18] = tested on: RPMI-8226; test: cells; settings: Homo sapiens, RPMI-8226, 48 h; for CC50: read-out: LC50
[19] = tested on: M14; test: cells; settings: Homo sapiens, M14, 48 h; for CC50: read-out: LC50
[20] = tested on: OVCAR-8; test: cells; settings: Homo sapiens, OVCAR-8, 48 h
[21] = tested on: NCI-H522; test: cells; settings: Homo sapiens, NCI-H522, 48 h
[22] = tested on: HCC-2998; test: cells; settings: Homo sapiens, HCC 2998, 48 h
[23] = tested on: HT29; test: cells; settings: Homo sapiens, HT-29, 48 h
[24] = tested on: U251; test: cells; settings: Homo sapiens, U-251, 48 h; for GI50: U251, 48 h
[25] = tested on: MALME-3M; test: cells; settings: Homo sapiens, 48 h; for CC50: read-out: LC50
[26] = tested on: CAKI-1; test: cells; settings: Homo sapiens, CAKI-1, 48 h; for CC50: read-out: LC50
[27] = tested on: A549/ATCC; test: cells; settings: Homo sapiens, A549, 48 h; for CC50: read-out: LC50
[28] = tested on: COLO 205; test: cells; settings: Homo sapiens, COLO 205, 48 h; for CC50: read-out: LC50
[29] = tested on: UO-31; test: cells; settings: Homo sapiens, UO-31, 48 h
[30] = tested on: RXF 393; test: cells; settings: Homo sapiens, RXF 393, 48 h
[31] = tested on: MDA-MB-468; test: cells; settings: Homo sapiens, MDA-MB-468, 48 h
[32] = tested on: HCT-15; test: cells; settings: Homo sapiens, HCT-15, 48 h; for CC50: read-out: LC50
[33] = tested on: SW-620; test: cells; settings: Homo sapiens, SW-620, 48 h; for CC50: read-out: LC50
[34] = tested on: DU-145; test: cells; settings: Homo sapiens, DU-145, 48 h; for CC50: read-out: LC50
[35] = tested on: NCI-H322M; test: cells; settings: Homo sapiens, 48 h; for CC50: read-out: LC50
[36] = tested on: SNB-75; test: cells; settings: Homo sapiens, SNB-75, 48 h; for CC50: read-out: LC50
[37] = tested on: EKVX; test: cells; settings: Homo sapiens, 48 h; for CC50: read-out: LC50

Work on `CN(C)c1nc(NCCNS(=O)(=O)c2ccc(C3=Nc4c(N)nc(N)nc4NC(c4ccccc4)C3)cc2)nc(Nc2ccc(F)cc2)n1` (stereo not shown) [31a] yielded a GI50 [1] of 6.16 µM, a CC50 [1] of 67.6 µM and a GI50 [2] of 6.43 µM. The CC50 [2] was > 100 µM, the GI50 [3] was 8.8 µM and the CC50 ([3]; read-out: LC50) was > 100 µM. For the same compound, the GI50 [4] was 21.8 µM, the CC50 [4] was > 100 µM and the GI50 [5] was > 100 µM. The CC50 ([5]; read-out: LC50) was > 100 µM, the hemolysis at 24 h, 200 µg/mL [6] was 1% and the GI50 [7] was 3.84 µM. The CC50 [7] was > 100 µM, the GI50 [8] was 8.82 µM and the CC50 ([8]; read-out: LC50) was > 100 µM. The GI50 [9] was 5.12 µM, the CC50 [9] was > 100 µM and the activity at 10 µM [10] was 40.4%. For the same compound, the GI50 [11] was 99.7 µM, the CC50 [11] was > 100 µM and the GI50 [12] was 3.11 µM. The CC50 [12] was > 100 µM, the GI50 [13] was > 100 µM and the CC50 [13] was > 100 µM. The GI50 [14] was > 100 µM, the CC50 [14] was > 100 µM and the GI50 [15] was 7.37 µM. For the same compound, the CC50 ([15]; read-out: LC50) was > 100 µM, the GI50 [16] was 31.5 µM and the CC50 ([16]; read-out: LC50) was > 100 µM. The GI50 [17] was 12 µM, the CC50 ([17]; read-out: LC50, SF-539, 48 h) was 63.8 µM and the GI50 [18] was 3.32 µM. The CC50 [18] was > 100 µM, the GI50 [19] was 24.4 µM and the CC50 [19] was > 100 µM. For the same compound, the GI50 [20] was 61.4 µM, the CC50 ([20]; read-out: LC50) was > 100 µM and the GI50 [21] was 77.4 µM. For the same compound, the CC50 ([21]; read-out: LC50) was > 100 µM, the GI50 [22] was 11.7 µM and the CC50 ([22]; read-out: LC50) was > 100 µM. The GI50 [23] was 5.32 µM, the CC50 ([23]; read-out: LC50) was > 100 µM and the GI50 [24] was 18.4 µM. For the same compound, the CC50 ([24]; read-out: LC50) was > 100 µM, the GI50 [25] was 7.34 µM and the CC50 [25] was > 100 µM. For the same compound, the GI50 [26] was 9.73 µM, the CC50 [26] was > 100 µM and the GI50 [27] was > 100 µM. The CC50 [27] was > 100 µM, the GI50 [28] was 16.4 µM and the CC50 [28] was > 100 µM. For the same compound, the GI50 [29] was > 100 µM, the CC50 ([29]; read-out: LC50) was > 100 µM and the GI50 [30] was 2.55 µM. The CC50 ([30]; read-out: LC50) was 8.95 µM, the GI50 [31] was 3.37 µM and the CC50 ([31]; read-out: LC50) was 13.7 µM. For the same compound, the GI50 [32] was > 100 µM, the CC50 [32] was > 100 µM and the GI50 [33] was 40.4 µM. For the same compound, the CC50 [33] was > 100 µM, the GI50 [34] was > 100 µM and the CC50 [34] was > 100 µM. The GI50 [35] was > 100 µM, the CC50 [35] was > 100 µM and the GI50 [36] was 3.58 µM. For the same compound, the CC50 [36] was > 100 µM, the GI50 [37] was 6.65 µM and the CC50 [37] was > 100 µM.
In the case of `COc1cc(/C=C/C(=O)c2ccc(C)cc2)ccc1Oc1nc(NCCO)nc(N2CCOCC2)n1` [20b], the GI50 [1] is reported as 2.98 µM, the CC50 [1] is reported as > 100 µM and the GI50 [2] is reported as 4.6 µM. The CC50 [2] was > 100 µM, the GI50 [3] was 1.85 µM and the GI50 [4] was 2.45 µM. For the same compound, the CC50 [4] was > 100 µM, the GI50 [5] was 1.94 µM and the hemolysis at 24 h, 200 µg/mL [6] was 3.3%. The GI50 [7] was 2.53 µM, the CC50 [7] was > 100 µM and the GI50 [8] was 1.62 µM. For the same compound, the GI50 [9] was 2.98 µM, the CC50 [9] was > 100 µM and the activity at 10 µM [10] was 48.9%. For the same compound, the GI50 [11] was 16.6 µM, the CC50 [11] was > 100 µM and the GI50 [12] was 2.09 µM. The CC50 [12] was > 100 µM, the GI50 [13] was 23 µM and the CC50 [13] was > 100 µM. For the same compound, the GI50 [14] was 2.5 µM, the CC50 [14] was > 100 µM and the GI50 [15] was 1.73 µM. It also gave a GI50 [16] of 2.01 µM, a GI50 [17] of 1.88 µM and a GI50 [18] of 1.72 µM. For the same compound, the CC50 [18] was > 100 µM, the GI50 [19] was 2.03 µM and the CC50 [19] was > 100 µM. For the same compound, the GI50 [20] was 1.76 µM, the GI50 [21] was 1.56 µM and the GI50 [22] was 2.08 µM. For the same compound, the GI50 [23] was 1.85 µM, the GI50 [24] was 1.62 µM and the GI50 [25] was 2.29 µM. For the same compound, the CC50 [25] was > 100 µM, the GI50 [26] was 5.02 µM and the CC50 [26] was > 100 µM. For the same compound, the GI50 [27] was 9.47 µM, the CC50 [27] was > 100 µM and the GI50 [28] was 2.64 µM. The CC50 [28] was > 100 µM, the GI50 [29] was 1.49 µM and the GI50 [30] was 2.07 µM. For the same compound, the GI50 [31] was 1.98 µM, the GI50 [32] was 1.78 µM and the CC50 [32] was > 100 µM. The GI50 [33] was 1.64 µM, the CC50 [33] was > 100 µM and the GI50 [34] was 3.79 µM. The CC50 [34] was > 100 µM, the GI50 [35] was 6.24 µM and the CC50 [35] was > 100 µM. For the same compound, the GI50 [36] was > 100 µM, the CC50 [36] was > 100 µM and the GI50 [37] was 3.9 µM. For the same compound, the CC50 [37] was > 100 µM.

Source: publication PMC11012124, “Synthesis of Novel Triazine-Based Chalcones and 8,9-dihydro-7H-pyrimido[4,5-b][1,4]diazepines as Potential Leads in the Search of Anticancer, Antibacterial and Antifungal Agents” (International Journal of Molecular Sciences, 2024)
